{
  "source": "patent US6906108B2",
  "about": "“Extracts of vetiver oil as repellent and toxicant to ants, ticks, and cockroaches” (Board of Supervisors of Louisiana State University and …, priority 2001, dated 2005)",
  "key": {"[1]": {"tested_on": "German cockroaches (Blattella germanica)", "test": "German cockroach Petri dish filter paper bioassay (repellency and toxicity)", "format": "in vivo", "experimental": "To test the efficacy of nootkatone against cockroaches, German cockroaches (Blattella germanica) were collected at Baton Rouge, La., the same day as the bioassay was begun.\nFor the bioassay, Petri dishes (10 cm diameter×1 cm) were used. The Petri dishes were prepared by lining one half of the top and one half of the bottom with a half circle of filter paper (125 mm), and lining the other half with a second half circle of filter paper. For the treated Petri dishes, 50 mg nootkatone and 300 mg REPEL® were dissolved in 2.0 ml ethanol. To each Petri dish was added either ethanol only, 30 mg Deet, 1 mg nootkatone, or 10 mg nootkatone. Ten replicate Petri dishes were used for each of the treatments. The ethanol solution was added to the filter paper on the top and bottom and dried for 10 min. One cockroach was added to each Petri dish. The length of the cockroaches varied from 1 to 1.5 cm. The dishes were then observed at 15 min, 30 min, 1 hr, 2 hr, 3 hr, 4 hr, 5 hr, 24 hr, 48 hr, and 120 hr."}, "[2]": {"tested_on": "cat fleas (Ctenocephalides felis (Bouche))", "test": "Cat flea Petri dish filter paper bioassay (repellency and mortality)", "format": "in vivo", "experimental": "To test the effectiveness of nootkatone against fleas, cat fleas (Ctenocephalides felis (Bouche)) were collected from a flea colony at St. Gabriel, La.\nPetri dishes (5 cm diameter and 1 cm height) were prepared by lining one half of the top and the bottom with a half circle of filter paper (55 mm), and lining the other half with a second half circle of filter paper. For the treated Petri dishes, 50 mg nootkatone or 100 mg REPEL® were dissolved in 0.5 ml ethanol. […] Ten replicate Petri dishes were used for each of the treatments. The ethanol solution was added to the filter paper on the top and bottom and dried for 10 min. To place the fleas in the Petri dishes, fleas were temporarily immobilized by placing them at −20° C. for 5 min. The number of fleas in each Petri dish varied: for the 10 control Petri dishes, the average number in each dish was 10.2, with a range of 4 to 23; for 0.2 mg nootkatone, the average number in each dish was 8.5, with a range of 5 to 18; for 1 mg nootkatone, the average number in each dish was 10.6, with a range of 6 to 21; for 2 mg nootkatone, the average number in each dish was 11.1, with a range of 9 to 15 (Fleas could be counted in only 9 Petri dishes; one had too many fleas to count); and for 2.76 mg Deet, the average number in each dish was 6.7, with a range of 5 to 9.\nThe number of fleas on each side of each Petri dish was counted at 1 hr, 2 hr, 3 hr, 4 hr, 24 hr, 48 hr, 72 hr, and 96 hr."}},
  "data": [
    {"smiles": "C=C(C)C1CCC2=CC(=O)CC(C)C2(C)C1", "note": "(stereo not shown) [nootkatone, 4,4a,5,6,7,8-hexahydro-6-isopropenyl-4,4a-dimethyl-2(3H)-naphthalone]", "values": [
      {"measurement": "Repellent activity against the cockroaches", "setting": "[1]; 1 mg per dish", "value": "weak repellent"},
      {"measurement": "Percent Repellency", "setting": "[1]; 1 mg per dish, 30 min", "value": 70, "unit": "%"},
      {"measurement": "Percent Repellency", "setting": "[1]; 1 mg per dish, 1 hr", "value": 60, "unit": "%"},
      {"measurement": "Percent Repellency", "setting": "[1]; 1 mg per dish, 2 hr", "value": 50, "unit": "%"},
      {"measurement": "Percent Repellency", "setting": "[1]; 1 mg per dish, 3 hr", "value": 78, "unit": "%"},
      {"measurement": "Percent Repellency", "setting": "[1]; 1 mg per dish, 4 hr", "value": 78, "unit": "%"},
      {"measurement": "Percent Repellency", "setting": "[1]; 1 mg per dish, 5 hr", "value": 78, "unit": "%"},
      {"measurement": "Percent Repellency", "setting": "[1]; 1 mg per dish, 24 hr", "value": 56, "unit": "%"},
      {"measurement": "Percent Repellency", "setting": "[1]; 1 mg per dish, 48 hr", "value": 78, "unit": "%"},
      {"measurement": "Percent Repellency", "setting": "[1]; 1 mg per dish, 120 hr", "value": 100, "unit": "%"},
      {"measurement": "Percent Repellency", "setting": "[1]; 10 mg per dish, 30 min", "value": 90, "unit": "%"},
      {"measurement": "Percent Repellency", "setting": "[1]; 10 mg per dish, 1 hr", "value": 100, "unit": "%"},
      {"measurement": "Percent Repellency", "setting": "[1]; 10 mg per dish, 2 hr", "value": 100, "unit": "%"},
      {"measurement": "Percent Repellency", "setting": "[1]; 10 mg per dish, 3 hr", "value": 100, "unit": "%"},
      {"measurement": "Percent Repellency", "setting": "[1]; 10 mg per dish, 4 hr", "value": 100, "unit": "%"},
      {"measurement": "Percent Repellency", "setting": "[1]; 10 mg per dish, 5 hr", "value": 100, "unit": "%"},
      {"measurement": "Percent Repellency", "setting": "[1]; 10 mg per dish, 24 hr", "value": 100, "unit": "%"},
      {"measurement": "Percent Repellency", "setting": "[1]; 10 mg per dish, 48 hr", "value": 100, "unit": "%"},
      {"measurement": "Percent Repellency", "setting": "[1]; 10 mg per dish, 120 hr", "value": 100, "unit": "%"},
      {"measurement": "Number of cockroach deaths compared with the control", "setting": "[1]; any of the treatments (30 mg Deet; 1 mg or 10 mg nootkatone), up to 120 hr", "value": "not significantly different from the control"},
      {"measurement": "Percent Flea Mortality", "setting": "[2]; 0.2 mg per dish, 1 hr", "value": 0, "unit": "%"},
      {"measurement": "Percent Flea Mortality", "setting": "[2]; 0.2 mg per dish, 2 hr", "value": 0, "unit": "%"},
      {"measurement": "Percent Flea Mortality", "setting": "[2]; 0.2 mg per dish, 3 hr", "value": 0, "unit": "%"},
      {"measurement": "Percent Flea Mortality", "setting": "[2]; 0.2 mg per dish, 4 hr", "value": 0, "unit": "%"},
      {"measurement": "Percent Flea Mortality", "setting": "[2]; 0.2 mg per dish, 24 hr", "value": 22, "unit": "%"},
      {"measurement": "Percent Flea Mortality", "setting": "[2]; 0.2 mg per dish, 48 hr", "value": 45, "unit": "%"},
      {"measurement": "Percent Flea Mortality", "setting": "[2]; 0.2 mg per dish, 72 hr", "value": 72, "unit": "%"},
      {"measurement": "Percent Flea Mortality", "setting": "[2]; 0.2 mg per dish, 96 hr", "value": 79, "unit": "%"},
      {"measurement": "Repellent activity against fleas", "setting": "[2]; 0.2 mg, 1 mg and 2 mg per dish", "value": "no repellent activity"},
      {"measurement": "Toxicant activity against fleas", "setting": "[2]; 0.2 mg, 1 mg and 2 mg per dish", "value": "only delayed toxicant activity"},
      {"measurement": "Percent Flea Mortality", "setting": "[2]; 1 mg per dish, 1 hr", "value": 0, "unit": "%"},
      {"measurement": "Percent Flea Mortality", "setting": "[2]; 1 mg per dish, 2 hr", "value": 0, "unit": "%"},
      {"measurement": "Percent Flea Mortality", "setting": "[2]; 1 mg per dish, 3 hr", "value": 16, "unit": "%"},
      {"measurement": "Percent Flea Mortality", "setting": "[2]; 1 mg per dish, 4 hr", "value": 38, "unit": "%"},
      {"measurement": "Percent Flea Mortality", "setting": "[2]; 1 mg per dish, 24 hr", "value": 66, "unit": "%"},
      {"measurement": "Percent Flea Mortality", "setting": "[2]; 1 mg per dish, 48 hr", "value": 92, "unit": "%"},
      {"measurement": "Percent Flea Mortality", "setting": "[2]; 1 mg per dish, 72 hr", "value": 89, "unit": "%"},
      {"measurement": "Percent Flea Mortality", "setting": "[2]; 1 mg per dish, 96 hr", "value": 98, "unit": "%"},
      {"measurement": "Percent Flea Mortality", "setting": "[2]; 2 mg per dish, 1 hr", "value": 0, "unit": "%"},
      {"measurement": "Percent Flea Mortality", "setting": "[2]; 2 mg per dish, 2 hr", "value": 0, "unit": "%"},
      {"measurement": "Percent Flea Mortality", "setting": "[2]; 2 mg per dish, 3 hr", "value": 26, "unit": "%"},
      {"measurement": "Percent Flea Mortality", "setting": "[2]; 2 mg per dish, 4 hr", "value": 50, "unit": "%"},
      {"measurement": "Percent Flea Mortality", "setting": "[2]; 2 mg per dish, 24 hr", "value": 77, "unit": "%"},
      {"measurement": "Percent Flea Mortality", "setting": "[2]; 2 mg per dish, 48 hr", "value": 84, "unit": "%"},
      {"measurement": "Percent Flea Mortality", "setting": "[2]; 2 mg per dish, 72 hr", "value": 91, "unit": "%"},
      {"measurement": "Percent Flea Mortality", "setting": "[2]; 2 mg per dish, 96 hr", "value": 94, "unit": "%"}
    ]}
  ]
}
